Results: patent US10703764B2, “Benzopiperazine compositions as BET bromodomain inhibitors” (FORMA Therapeutics, Inc., priority 2013, dated 2020)

Legend:
BRD4 BD2 = biological target: T1, BRD4 BD2 (Homo sapiens, UniProt O60885); assay: AlphaScreen binding assay, BRD4 Bromodomain 2
T1 construct: made in house
Summary of the method: (§1)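 An AlphaScreen competition format was used with His-BRD4 BD1 or BD2 and biotin-H4 K5/8/12/16-acetyl peptide, each at matched final levels of 50 nM (BD1) or 100 nM (BD2). Incubation in HEPES/NaCl buffer with 0.1% BSA and 0.01% Triton X-100 ran ≥1 h before IC50 determination.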

BRD4 BD1 = biological target: T2, BRD4 BD1 (Homo sapiens, UniProt O60885); assay: AlphaScreen binding assay, BRD4 Bromodomain 1
T2 construct: made in house
Summary of the method: as §1

SMILES: CCC[C@@H](C)CN1C[C@H](C)N(C(C)=O)c2ccccc21 [Example I-927]
- IC50 (BRD4 BD2): > 500 nM
- IC50 (BRD4 BD1): > 10000 nM

SMILES: CC(=O)N1c2ccccc2N(C(=O)CN2CCCCCC2=O)C[C@@H]1C [Example I-764]
- IC50 (BRD4 BD2): > 500 nM
- IC50 (BRD4 BD1): > 10000 nM

SMILES: CC(=O)N1c2ccc(-c3ccc(S(C)(=O)=O)cc3)cc2N(C(=O)Oc2ccccn2)C[C@@H]1C [Example I-1314]
- IC50 (BRD4 BD2): 50 to 500 nM
- IC50 (BRD4 BD1): 1000 to 10000 nM

SMILES: COc1cscc1C(=O)N1C[C@H](C)N(C(C)=O)c2ccccc21 [Example I-747]
- IC50 (BRD4 BD2): > 500 nM
- IC50 (BRD4 BD1): > 10000 nM

SMILES: CC(=O)N1c2ccc(-c3cnn(C4CC4)c3)cc2N(C(=O)Oc2cccnc2C)C[C@@H]1C [Example I-514]
- IC50 (BRD4 BD2): 50 to 500 nM
- IC50 (BRD4 BD1): 1000 to 10000 nM

SMILES: CC(=O)N1c2ccc(-c3ccc(S(C)(=O)=O)cc3)cc2N(C(=O)c2ccc(CN(C)C)o2)C[C@@H]1C [Example I-984]
- IC50 (BRD4 BD2): 50 to 500 nM
- IC50 (BRD4 BD1): > 10000 nM

SMILES: CC(=O)N1c2ccccc2N(S(=O)(=O)c2cccc(C#N)c2)C[C@@H]1C [Example I-944]
- IC50 (BRD4 BD2): > 500 nM
- IC50 (BRD4 BD1): > 10000 nM

SMILES: CC(=O)N1c2ccccc2N(Cc2ccc(Cl)cc2Cl)C[C@@H]1C [Example I-894]
- IC50 (BRD4 BD2): > 500 nM
- IC50 (BRD4 BD1): > 10000 nM

SMILES: CC(=O)N1C[C@H](C)N(C(C)=O)c2ccc(-c3ccc(S(C)(=O)=O)cc3)cc21 [Example I-241]
- IC50 (BRD4 BD2): 50 to 500 nM
- IC50 (BRD4 BD1): 1000 to 10000 nM

SMILES: CC(=O)N1c2ccccc2N(C(=O)COc2ccc(Cl)cc2)C[C@@H]1C [Example I-732]
- IC50 (BRD4 BD2): > 500 nM
- IC50 (BRD4 BD1): > 10000 nM

SMILES: COC(=O)N1c2ccc(-c3ccc(C(=O)NCCN)cc3)cc2N(C(=O)C2CC2)C[C@@H]1C [Example I-463]
- IC50 (BRD4 BD2): 50 to 500 nM
- IC50 (BRD4 BD1): 1000 to 10000 nM

SMILES: CC(=O)N1c2ccc(-c3ccc(S(C)(=O)=O)cc3)cc2N(C(=O)Nc2cccc(C)c2)C[C@@H]1C [Example I-971]
- IC50 (BRD4 BD2): 50 to 500 nM
- IC50 (BRD4 BD1): > 10000 nM

SMILES: CC(=O)N1c2ccc(-c3cccnc3)cc2N(C(=O)c2ccco2)C[C@@H]1C [Example I-819]
- IC50 (BRD4 BD2): 50 to 500 nM
- IC50 (BRD4 BD1): 1000 to 10000 nM

SMILES: CC(=O)N1c2ccc(-c3ccc(S(C)(=O)=O)cc3)cc2N(C(=O)c2cccc(N)c2)C[C@@H]1C [Example I-985]
- IC50 (BRD4 BD2): 50 to 500 nM
- IC50 (BRD4 BD1): > 10000 nM

SMILES: CC(=O)N1c2ccc(-c3ccc(OC(F)(F)F)cc3)cc2N(C(=O)c2ccco2)C[C@@H]1C [Example I-808]
- IC50 (BRD4 BD2): 50 to 500 nM
- IC50 (BRD4 BD1): 1000 to 10000 nM

SMILES: COc1cncc(CN2C[C@H](C)N(C(C)=O)c3ccccc32)c1 [Example I-914]
- IC50 (BRD4 BD2): > 500 nM
- IC50 (BRD4 BD1): > 10000 nM

SMILES: CC(=O)N1c2ccc(-c3ccn4ccnc4n3)cc2N(C(=O)c2ccco2)C[C@@H]1C [Example I-406]
- IC50 (BRD4 BD2): > 500 nM
- IC50 (BRD4 BD1): > 10000 nM

SMILES: CC(=O)N1c2ccccc2N(CC2CCN(C(C)C)CC2)C[C@@H]1C [Example I-929]
- IC50 (BRD4 BD2): > 500 nM
- IC50 (BRD4 BD1): > 10000 nM

SMILES: CC(=O)N1c2ccc(-c3cc(F)cc(F)c3)cc2N(C(=O)c2ccco2)C[C@@H]1C [Example I-869]
- IC50 (BRD4 BD2): 50 to 500 nM
- IC50 (BRD4 BD1): 1000 to 10000 nM

SMILES: CC(=O)N1c2ccc(-c3cnc4ccccc4c3)cc2N(C(=O)c2ccco2)C[C@@H]1C [Example I-823]
- IC50 (BRD4 BD2): 50 to 500 nM
- IC50 (BRD4 BD1): 1000 to 10000 nM

SMILES: CC(=O)N1c2ccc(-c3cccc(C(N)=O)c3)cc2N(C(=O)c2ccco2)C[C@@H]1C [Example I-856]
- IC50 (BRD4 BD2): < 50 nM
- IC50 (BRD4 BD1): 1000 to 10000 nM

SMILES: CC(=O)N1c2ccccc2N(S(=O)(=O)c2ccc(C(F)(F)F)cc2)C[C@@H]1C [Example I-937]
- IC50 (BRD4 BD2): > 500 nM
- IC50 (BRD4 BD1): > 10000 nM

SMILES: COc1ccc(CC(=O)N2C[C@H](C)N(C(C)=O)c3ccccc32)cc1 [Example I-698]
- IC50 (BRD4 BD2): > 500 nM
- IC50 (BRD4 BD1): > 10000 nM

SMILES: CC(=O)N1c2ccc(-c3cnn(Cc4noc(C)n4)c3)cc2N(C(=O)OC(C)C)C[C@@H]1C [Example I-138, (S)-isopropyl 4-acetyl-3-methyl-7-(1-((5-methyl-1,2,4-oxadiazol-3-yl)methyl)-1H-pyrazol-4-yl)-3,4-dihydroquinoxaline-1(2H)-carboxylate]
- IC50 (BRD4 BD2): 50 to 500 nM
- IC50 (BRD4 BD1): 100 to 1000 nM

SMILES: CC(=O)N1c2ccc(-c3cnn(C4COC4)c3)cc2N(C(=O)OCC2(C)COC2)C[C@@H]1C [Example I-61, (S)-(3-methyloxetan-3-yl)methyl 4-acetyl-3-methyl-7-(1-(oxetan-3-yl)-1H-pyrazol-4-yl)-3,4-dihydroquinoxaline-1(2H)-carboxylate]
- IC50 (BRD4 BD2): > 500 nM
- IC50 (BRD4 BD1): 1000 to 10000 nM

SMILES: CC(=O)N1c2ccc(-c3cnn(CCC(F)(F)F)c3)cc2N(C(=O)OC(C)C)C[C@@H]1C [Example I-142, (S)-isopropyl 4-acetyl-3-methyl-7-(1-(3,3,3-trifluoropropyl)-1H-pyrazol-4-yl)-3,4-dihydroquinoxaline-1(2H)-carboxylate]
- IC50 (BRD4 BD2): 50 to 500 nM
- IC50 (BRD4 BD1): 1000 to 10000 nM

SMILES: CC(=O)N1c2ccc(-c3ccccn3)cc2N(C(=O)c2ccco2)C[C@@H]1C [Example I-381]
- IC50 (BRD4 BD2): 50 to 500 nM
- IC50 (BRD4 BD1): 1000 to 10000 nM

SMILES: CC(=O)N1c2ccc(-c3cnn(CC(=O)N4CCC4)c3)cc2N(C(=O)C2CC2)C[C@@H]1C [Example I-672]
- IC50 (BRD4 BD2): 50 to 500 nM
- IC50 (BRD4 BD1): 1000 to 10000 nM

SMILES: CCc1ccc(CN2C[C@H](C)N(C(C)=O)c3ccccc32)cc1 [Example I-901]
- IC50 (BRD4 BD2): > 500 nM
- IC50 (BRD4 BD1): > 10000 nM

SMILES: CC(=O)N1c2ccc(-c3ccc(-n4cccn4)c(F)c3)cc2N(C(=O)c2ccco2)C[C@@H]1C [Example I-814]
- IC50 (BRD4 BD2): < 50 nM
- IC50 (BRD4 BD1): 1000 to 10000 nM

SMILES: CC(=O)N1c2ccc(-c3ccc(S(C)(=O)=O)cc3)cc2N(C(=O)Oc2ccc(Cl)cc2)C[C@@H]1C [Example I-226]
- IC50 (BRD4 BD2): 50 to 500 nM
- IC50 (BRD4 BD1): 1000 to 10000 nM

SMILES: CC(=O)N1c2ccccc2N(Cc2ccc(O)c(C)c2)C[C@@H]1C [Example I-904]
- IC50 (BRD4 BD2): > 500 nM
- IC50 (BRD4 BD1): > 10000 nM

SMILES: COC(=O)N1c2ccc(-c3ccc(C(=O)NCCN)cc3)cc2N(C(=O)OC(C)C)C[C@@H]1C [Example I-489]
- IC50 (BRD4 BD2): > 500 nM
- IC50 (BRD4 BD1): 1000 to 10000 nM

SMILES: COc1ccc(-c2ccc3c(c2)N(C(=O)c2ccco2)C[C@H](C)N3C(C)=O)cn1 [Example I-833]
- IC50 (BRD4 BD2): 50 to 500 nM
- IC50 (BRD4 BD1): 1000 to 10000 nM

SMILES: CC(=O)N1c2ccc(-c3cnn(C4CC4)c3)cc2N(C(=O)Oc2cc(F)ccc2C)C[C@@H]1C [Example I-1200]
- IC50 (BRD4 BD2): 50 to 500 nM
- IC50 (BRD4 BD1): 1000 to 10000 nM

SMILES: CC(=O)N1c2cnc(-c3ccc(S(C)(=O)=O)cc3)cc2N(C(=O)OC(C)C)C[C@@H]1C [Example I-58, isopropyl (S)-4-acetyl-3-methyl-7-(4-(methylsulfonyl)phenyl)-3,4-dihydro pyrido[3,4-b]pyrazine-1 (2H)-carboxylate]
- IC50 (BRD4 BD2): > 500 nM
- IC50 (BRD4 BD1): 1000 to 10000 nM

SMILES: CC(=O)N1c2ccc(-c3ccc(S(C)(=O)=O)cc3)nc2N(C(=O)OC(C)C)C[C@@H]1C [Example I-254]
- IC50 (BRD4 BD2): > 500 nM
- IC50 (BRD4 BD1): 1000 to 10000 nM

SMILES: CC(=O)N1c2ccc(-c3ccc(S(C)(=O)=O)cc3)cc2N(C(=O)Nc2ccccc2Cl)C[C@@H]1C [Example I-973]
- IC50 (BRD4 BD2): 50 to 500 nM
- IC50 (BRD4 BD1): 1000 to 10000 nM

SMILES: CC(=O)N1c2ccc(-c3ccc(S(C)(=O)=O)cc3)cc2N(C(=O)N(C)C)C[C@@H]1C [Example I-248]
- IC50 (BRD4 BD2): 50 to 500 nM
- IC50 (BRD4 BD1): > 10000 nM

SMILES: CC(=O)N1c2ccc(-c3cnn(C4COC4)c3)cc2N(C(=O)[C@@H]2CC2(Cl)Cl)C[C@@H]1C (single isomer, unassigned) [Example I-112]
- IC50 (BRD4 BD2): 50 to 500 nM
- IC50 (BRD4 BD1): 1000 to 10000 nM

SMILES: CC(=O)N1c2ccccc2N(C(=O)c2cccc3ccccc23)C[C@@H]1C [Example I-719]
- IC50 (BRD4 BD2): > 500 nM
- IC50 (BRD4 BD1): > 10000 nM
